Test results: PMC11063903, “Engineering a human P2X2 receptor with altered ligand selectivity in yeast” (The Journal of Biological Chemistry, 2024)

Tests used:
P2X2 A304F = target: T1, P2X2 A304F (Homo sapiens, UniProt Q9UBL9, A304F); test: Site-saturation screen of ligand-binding domain with ATP, A304F; format: cell-based; settings: 500 μM ATP, ± sd
T1 construct: expressed in transfected cells; host or cells: Saccharomyces cerevisiae BY4741 derivative, genome-integrated, galactose-inducible
Source text: (§1) The yeast P2X2 screening platform poses an opportunity to probe the structure-function of the ligand-binding domain in detail. The conserved P2X “NFR” motif at residues 300 to 302 is directly involved in bonding to the ATP triphosphate moiety ([41]), so we mutagenized residues at or near this motif (298–304), ultimately covering 133 variants (7 sites, 19 residues each). […] We compared our results to phylogenetic data based on a multiple sequence alignment (MSA) from a curated set of 419 related P2X homologs (Figs. 3B, and S5; Table S1).
(§2) Figure 3 Structure-function analysis of the ligand binding domain.A, heat map summarizing the screening data of ATP with seven site-saturation libraries surrounding the NFR-motif. B, sequence-logo plot of the mutagenized residues and percent identity scores as determined from MSA. C, homology model of P2X2 colored by sequence conservation as calculated from a multiple sequence alignment of 419 related P2X genes. Conservation is scored on a log scale where maroon is more conserved and blue is less conserved. D, ATP in the ligand-binding pocket of P2X2. […]
(§3) GCaMP assays were performed as follows. […] Cells were loaded onto a black, clear bottom microplate and imaged on a FlexStation3 plate reader. […] Fluorescence was measured with an excitation at 485 nm, and emission 525 nm. […] For strains with mScarlet, fluorescence was read with excitation 570 nm/emission 610 nm. […]

P2X2 A304H = target: T2, P2X2 A304H (Homo sapiens, UniProt Q9UBL9, A304H); test: Site-saturation screen of ligand-binding domain with ATP, A304H; format: cell-based; settings: 500 μM ATP, ± sd
T2 construct: expressed in transfected cells; host or cells: Saccharomyces cerevisiae BY4741 derivative, genome-integrated, galactose-inducible
Source text: as §1, §2, §3

P2X2 = test system: P2X2; design: method as in PMID 10570044; settings: human glia; read-out: EC50, previously published value; cited from earlier work
human P2X2 receptor = target: T3, human P2X2 receptor (Homo sapiens, UniProt Q9UBL9); test: GCaMP calcium assay of P2X2 expressed in yeast S. cerevisiae, agonist response; format: cell-based
T3 construct: expressed in transfected cells; host or cells: S. cerevisiae BY4741 background, P2X2 genome-integrated under a galactose-inducible promoter
T3 sequence (Q9UBL9 1-471): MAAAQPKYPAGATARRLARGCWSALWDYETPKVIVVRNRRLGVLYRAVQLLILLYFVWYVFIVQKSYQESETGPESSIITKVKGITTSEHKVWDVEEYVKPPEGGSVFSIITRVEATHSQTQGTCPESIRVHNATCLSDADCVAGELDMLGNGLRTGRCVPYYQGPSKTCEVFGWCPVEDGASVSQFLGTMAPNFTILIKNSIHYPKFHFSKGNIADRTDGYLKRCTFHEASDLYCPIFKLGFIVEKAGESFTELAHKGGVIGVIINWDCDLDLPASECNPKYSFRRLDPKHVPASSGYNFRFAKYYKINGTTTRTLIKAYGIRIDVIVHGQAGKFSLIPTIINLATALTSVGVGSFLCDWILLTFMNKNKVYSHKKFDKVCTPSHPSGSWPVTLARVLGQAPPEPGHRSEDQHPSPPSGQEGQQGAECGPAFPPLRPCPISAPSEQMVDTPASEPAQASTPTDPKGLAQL
Source text: Although P2X receptors are expressed in many eukaryotic organisms including some fungi ([24]), they are not present in S. cerevisiae. For recombinant expression to yield functional P2X channels, receptor proteins must be correctly folded, assembled into trimers, and efficiently trafficked to the plasma membrane. To assess whether P2X ion channels could functionally gate in S. cerevisiae the canonical isoforms of P2X1-7 were co-expressed with aequorin, a calcium-activated photoprotein from the jellyfish Aequorea victoria.
Genetic knockouts of the calnexin homolog (ΔCne1p) and vacuolar calcium transporter (Δ Vcx1p) (n = 3) were compared to the WT yeast strain (n = 2). […] Statistical analysis was performed using one-way ANOVA with Dunnett’s multiple comparisons test where ∗∗ is p ≤ 0.01. […] Yeast were injected with ATP at 21 s and onset rates from the last six points (40–48 s) were used for calculating the dose response in (D). E and F, kinetic and dose–response measurements of P2X2 with the GCaMP reporter with ATP (n = 4), partial agonist BzATP (n = 3), and agonist 2-chloro-ATP (n = 4). Figures (D and F) share the figure legend with (C). […] Suramin was pre-equilibrated with P2X2-yeast for 10 min and 5 μM ATP was injected.
To expand the assay throughput to accommodate several 96-well plates at a time, we required the acquisition of short-duration signals. Since GCaMP signals are typically measured in terms of ΔF/F0, where ΔF is Fmax-Fmin, and since the signal takes several minutes to reach Fmax, we instead attempted to correlate the rate of signal onset (rather than its amplitude) with channel activity.
Having optimized our yeast strains and assay throughput, we sought to further validate the function of human P2X2 in the yeast host.
GCaMP assays were performed as follows. P2X2 GCaMP strains were designed with a bi-cistronic reporter, in which the GCaMP protein was followed by a 2A peptide and a mScarletI reporter ([53]). The co-translated mScarletI was designed to act as a control for plasmid loss, GCaMP breakage via nonsense mutation, and contamination. […] P2X2-GCaMP strains were cultured and induced as previously described. Samples were induced for 24 h to allow for the accumulation of the mature GCaMP protein. Cells were washed three times in 0.1 M MES/Tris buffer and resuspended with MES/Tris with supplemental calcium. Cells were loaded onto a black, clear bottom microplate and imaged on a FlexStation3 plate reader. Samples were imaged in “flex” mode. Samples were imaged for 48 s at an interval of 1.6 s. Fluorescence was measured with an excitation at 485 nm, and emission 525 nm. At the 21 s mark, 100 μl ligand solution was transferred to the cells. For strains with mScarlet, fluorescence was read with excitation 570 nm/emission 610 nm. Slopes were calculated from the last 6 points of measurement and were normalized to the positive control samples. Any replicate in which the mScarlet value was measured to be over 2 standard deviations less than the mean for that set was discarded from further analysis.

P2X2 N300S = target: T4, P2X2 N300S (Homo sapiens, UniProt Q9UBL9, N300S); test: Site-saturation screen of ligand-binding domain with ATP, N300S; format: cell-based; settings: 500 μM ATP, ± sd
T4 construct: expressed in transfected cells; host or cells: S. cerevisiae BY4741 background
Source text: as §1, §2, §3

P2X2 N300T = target: T5, P2X2 N300T (Homo sapiens, UniProt Q9UBL9, N300T); test: Site-saturation screen of ligand-binding domain with ATP, N300T; format: cell-based; settings: 500 μM ATP, ± sd
T5 construct: expressed in transfected cells; host or cells: S. cerevisiae BY4741 background
Source text: as §1, §2, §3

T2 sequence (Q9UBL9 whole entry A304H, the tested form may be a part): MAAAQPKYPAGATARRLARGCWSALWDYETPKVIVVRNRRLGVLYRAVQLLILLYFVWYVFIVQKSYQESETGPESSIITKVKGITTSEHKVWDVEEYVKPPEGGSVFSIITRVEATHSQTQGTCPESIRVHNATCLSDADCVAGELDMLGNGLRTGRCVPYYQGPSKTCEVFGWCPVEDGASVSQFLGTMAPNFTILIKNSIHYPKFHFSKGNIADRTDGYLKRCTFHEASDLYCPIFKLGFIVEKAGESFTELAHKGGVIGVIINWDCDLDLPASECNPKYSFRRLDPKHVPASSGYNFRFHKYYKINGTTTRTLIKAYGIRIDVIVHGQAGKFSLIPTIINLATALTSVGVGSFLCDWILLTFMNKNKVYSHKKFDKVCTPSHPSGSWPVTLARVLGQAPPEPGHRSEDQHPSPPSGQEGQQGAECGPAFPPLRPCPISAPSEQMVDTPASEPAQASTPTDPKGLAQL
T1 sequence (Q9UBL9 whole entry A304F, the tested form may be a part): as the sequence (Q9UBL9 whole entry A304H, the tested form may be a part) above, with H304F counted along it
T5 sequence (Q9UBL9 whole entry N300T, the tested form may be a part): as the sequence (Q9UBL9 whole entry A304H, the tested form may be a part) above, with N300T, H304A counted along it
T4 sequence (Q9UBL9 whole entry N300S, the tested form may be a part): as the sequence (Q9UBL9 whole entry A304H, the tested form may be a part) above, with N300S, H304A counted along it

In the case of `Nc1ncnc2c1ncn2[C@@H]1O[C@H](COP(=O)(O)OP(=O)(O)OP(=O)(O)O)[C@@H](O)[C@H]1O` [ATP], the “signal, % of WT signaling” value (P2X2 A304F) is given as 57 ± 2.6%, the “signal, % of WT signaling” value (P2X2 A304H) is given as 27 ± 18% and the EC50 (P2X2) is given as 6 µM. The “maximum fluorescence compared to a negative control receptor” value (human P2X2 receptor; GCaMP strain, saturating (500 μM) ATP, vs K81C K83C P2X2) was 12 fold, the “pEC50 (signaling onset rate ΔF/ΔT)” value (human P2X2 receptor; rapid GCaMP assay format, yeast, Fig. 1D) was 5.88 ± 0.056 and the EC50 (human P2X2 receptor; rapid GCaMP assay format, yeast, Fig. 1D, read-out: EC50 (signaling onset rate ΔF/ΔT)) was 1.3 µM. For the same compound, the “signal, % of WT signaling” value (P2X2 N300S) was 151 ± 16% and the “signal, % of WT signaling” value (P2X2 N300T) was 51 ± 10%.
